Experimental findings from article PMC9529664 (Current Research in Food Science, 2022) are described below.

Residues, ends and D or L forms follow the SMILES beside them.

For the assay, the target named is DPP-IV enzyme (Homo sapiens, UniProt P27487). Briefly: biochemical.
Sequence of DPP-IV enzyme (P27487 whole entry, species assumed): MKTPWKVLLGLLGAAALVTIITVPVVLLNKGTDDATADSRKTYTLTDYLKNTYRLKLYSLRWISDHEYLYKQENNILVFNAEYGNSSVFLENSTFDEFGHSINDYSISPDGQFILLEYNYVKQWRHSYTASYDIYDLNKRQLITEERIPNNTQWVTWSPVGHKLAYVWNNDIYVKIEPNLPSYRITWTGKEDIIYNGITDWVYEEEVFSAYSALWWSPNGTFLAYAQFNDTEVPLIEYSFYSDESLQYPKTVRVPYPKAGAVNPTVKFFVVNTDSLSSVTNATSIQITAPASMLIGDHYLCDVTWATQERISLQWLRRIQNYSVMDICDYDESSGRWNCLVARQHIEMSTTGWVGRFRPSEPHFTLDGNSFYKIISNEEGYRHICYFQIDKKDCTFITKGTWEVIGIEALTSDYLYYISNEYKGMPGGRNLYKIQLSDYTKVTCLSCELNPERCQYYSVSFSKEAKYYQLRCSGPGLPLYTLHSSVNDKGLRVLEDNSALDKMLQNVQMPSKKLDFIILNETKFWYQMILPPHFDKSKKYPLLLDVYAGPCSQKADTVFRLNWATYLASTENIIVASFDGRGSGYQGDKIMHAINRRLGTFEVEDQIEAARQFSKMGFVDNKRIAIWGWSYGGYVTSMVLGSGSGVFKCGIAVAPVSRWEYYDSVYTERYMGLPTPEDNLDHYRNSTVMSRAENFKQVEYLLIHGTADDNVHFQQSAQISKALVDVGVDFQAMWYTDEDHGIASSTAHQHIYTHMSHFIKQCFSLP

One may read the IC50 as the concentration needed to halve the response being measured. High values mean weaker potency, low ones greater potency. `C[C@@H](O)[C@H](NC(=O)[C@H](CC(N)=O)NC(=O)CNC(=O)[C@H](Cc1ccccc1)NC(=O)[C@@H]1CCCN1)C(=O)N[C@@H](Cc1c[nH]cn1)C(=O)N[C@@H](CC(N)=O)C(=O)N[C@@H](CC(N)=O)C(=O)N[C@@H](Cc1ccccc1)C(=O)N[C@@H](CCCCN)C(=O)O` [D1] (H-PFGNTHNNFK-OH): inhibition was half-maximal at 8.51 mM (IC50).

`CC[C@H](C)[C@H](N)C(=O)N1CCC[C@H]1C(=O)N[C@@H](Cc1c[nH]cn1)C(=O)N[C@@H](CCC(=O)O)C(=O)N[C@@H](CO)C(=O)N[C@H](C(=O)N[C@@H](CC(=O)O)C(=O)N[C@H](C(=O)N[C@H](C(=O)N[C@@H](CCCCN)C(=O)O)[C@@H](C)CC)C(C)C)C(C)C` [D22] (H-IPHESVDVIK-OH) showed an IC50 of 2.69 mM.

`CSCC[C@H](NC(=O)[C@H](Cc1c[nH]cn1)NC(=O)[C@H](CC(N)=O)NC(=O)[C@H](CC(N)=O)NC(=O)[C@H](Cc1c[nH]cn1)NC(=O)[C@H](CCCCN)NC(=O)[C@H](CO)NC(=O)[C@H](CC(C)C)NC(=O)[C@H](CC(=O)O)NC(=O)[C@@H]1CCCN1)C(=O)O` [D35] (H-PDLSKHNNHM-OH): half-maximal inhibition (IC50) required 3.88 mM.

As to `CC(C)[C@H](NC(=O)[C@H](C)NC(=O)[C@H](CCC(=O)O)NC(=O)[C@H](C)NC(=O)[C@@H]1CCCN1C(=O)[C@@H](N)CCC(=O)O)C(=O)NCC(=O)N[C@@H](CC(=O)O)C(=O)N[C@@H](Cc1c[nH]c2ccccc12)C(=O)N[C@@H](CCCNC(=N)N)C(=O)O` [D37] (H-EPAEAVGDWR-OH), 0.1 mM corresponded to half-maximal inhibition (IC50).
